Test results taken from patent US20210330611A1, “THERAPY FOR NEUROLOGICAL DISEASES/DISORDERS” (priority 2020, published 2021).
“And” between values parts separate entries of the source, which are not always exact repeats. Equal values may be shown once. Where a name gives a salt, the structure may show the parent alone. Read-outs that look alike come from different tables or passages of the source.

What was measured:
[1] = system: fibrin-induced microglia activation; assay: Image-based assay of fibrin-induced microglia activation (HTS and dose response); format: cell-based, rat; conditions: for inhibition at 10 µM / IC50: Rattus norvegicus, Microglia; for inhibition at 10 µM: primary microglia HTS, fibrin stimulation, increased cell size (>800 μm^2) as marker of activation, read-out: Fibrin % inhibition
[2] = system: LPS-induced microglia activation; assay: Image-based assay of LPS-induced microglia activation (HTS and dose response); format: cell-based, rat; conditions: Rattus norvegicus, Microglia; for inhibition at 10 µM: primary microglia HTS, LPS stimulation, increased cell size (>800 μm^2) as marker of activation, read-out: LPS % inhibition
[3] = system: fibrin- and LPS-induced microglia activation; assay: cells; format: cell-based, rat; conditions: for inhibition at 10 µM: Rattus norvegicus
in vitro [4] = conditions: rat, Cell Toxicity IC50 (uM) [cFib assay]
in vitro [5] = conditions: rat
primary rat microglia [6] = assay: Cell toxicity (dead cells, size <150 μm2) in LPS assay; conditions: for LPS % cell toxicity: primary microglia HTS, LPS stimulation, decreased size (<150 μm^2) as marker of toxicity; for IC50: read-out: Cell Toxicity IC50 (uM) [LPS assay], LPS assay
primary rat microglia [7] = assay: Cell toxicity (dead cells, size <150 μm2) in coated fibrin (cFib) assay; conditions: primary microglia HTS, fibrin stimulation; decreased size (<150 μm^2) as marker of toxicity;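 as to Fibrin % cell toxicity: share of dead cells sized under 150 µm2 at 10 µM in fibrin-stimulated microglia HTS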
[8] = 48 h, Table 1, dose response 0.001-20 μM, triplicates, primary rat microglia, 48 h, read-out: LPS IC50
[9] = LPS-induced microglia activation, dose response, read-out: LPS IC50 (uM) (Suppl. Table 7)
[10] = dose response, LPS-induced microglia activation, read-out: LPS IC50
[11] = HTS of 1907 compounds, quadrant by fibrin and LPS inhibition
[12] = Microglia, HTS hit classification, read-out: Hit
[13] = hit classification in microglia HTS, read-out: Cherry-picked Hit (Suppl. Table 7)
[14] = quadrant by fibrin and LPS inhibition in HTS of 1907 compounds
[15] = 48 h, Table 1, dose response 0.001-20 μM, triplicates, primary rat microglia, 48 h, read-out: Fibrin IC50
[16] = dose response, fibrin-induced microglia activation, read-out: Fibrin IC50
[17] = fibrin-induced microglia activation, dose response, read-out: Fibrin IC50 (uM) (Suppl. Table 7)
[18] = Table 3, read-out: Fibrin IC50 (uM) (Suppl. Table 7)
[19] = Table 3, read-out: LPS IC50 (uM) (Suppl. Table 7)
[20] = Microglia, Table 3, read-out: Cherry-picked Hit (Suppl. Table 7)

Row | SMILES | inhibition at 10 µM [1] [%] | IC50 [2, 8] [µM] | inhibition at 10 µM ([2]; 48 h) [%] | IC50 [2, 9] [µM] | IC50 [2, 10] [µM] | Quadrant (FIG. 5b) [3, 11] | inhibition at 10 µM [3, 12] [%] | inhibition at 10 µM [3, 13] [%] | Quadrant (FIG. 5b) ([3]; Table 1, screen at 10 μM) | Quadrant (FIG. 5b) [3, 14] | IC50 (in vitro [4]; cFib assay) [µM] | IC50 (in vitro [5]) [µM] | LPS % cell toxicity (primary rat microglia [6]) | Fibrin % cell toxicity (primary rat microglia [7]) | IC50 [1, 15] [µM] | IC50 [1, 16] [µM] | IC50 [1, 17] [µM] | inhibition at 10 µM [3, 20] [%] | Quadrant (FIG. 5b) ([3]; Table 3, screen at 10 μM) | IC50 (in vitro [4]; Table 3) [µM] | further results
1 | CC(=O)O[C@]1(C(C)=O)CC[C@H]2[C@@H]3C=C(Cl)C4=CC(=O)CC[C@]4(C)[C@H]3CC[C@@]21C [Chlormadinone acetate, reference compound] | 72 | > 20 | 43 | > 20 | > 20 | Q3 | > 50 | > 50 | Q3 | Q3 | > 20 | > 20 | 0% | 1% |  |  |  |  |  |  | 
2 | CC(CCc1ccc(O)cc1)NCC(O)c1ccc(O)cc1 (centres unmarked) [Ractopamine hydrochloride, reference compound] | 50 | > 20 | 39 | > 20 | > 20 | Q3 | > 50 | > 50 | Q3 | Q3 | > 20 | > 20 | 0% | 1% | 20 | 20 | 20 |  |  |  | 
3 | CN(C)[C@@H]1C(O)=C(C(N)=O)C(=O)[C@@]2(O)C(O)=C3C(=O)c4c(O)ccc(Cl)c4[C@@H](O)[C@H]3C[C@@H]12 [Demeclocycline hydrochloride, reference compound] | 75 | 15 | 31 | 15 | 15 | Q3 | > 50 |  | Q3 | Q3 | > 20 | > 20 | 1% | 1% | 6 | 6 | 6 | > 50 | Q3 | > 20 | Fibrin Selectivity [1]: 2; Fibrin Selectivity (LOG10) [1]: 0.38; IC50 [1, 18]: 6 µM; IC50 [2, 19]: 15 µM; IC50 (primary rat microglia [6]): > 20 µM
4 | NS(=O)(=O)c1cc(C2(O)NC(=O)c3ccccc32)ccc1Cl (centres unmarked) [Chlorthalidone, reference compound] | 77 | > 20 | 35 | > 20 | > 20 | Q3 | > 50 | > 50 | Q3 | Q3 | > 20 | > 20 | 1% | 2% | > 20 | > 20 | > 20 |  |  |  | 
5 | CC(=O)O[C@H]1C[C@@]2(C)[C@@H](C[C@@H](O)[C@H]3[C@@]4(C)CC[C@@H](O)[C@@H](C)[C@@H]4CC[C@@]32C)/C1=C(\CCC=C(C)C)C(=O)O [Fusidic acid, reference compound] | 77 | > 20 | 74 | > 20 | > 20 | Q2 | > 50 | > 50 | Q2 | Q2 | > 20 | > 20 | 2% | 1% | 19 | 19 | 19 |  |  |  | 
6 | CCCCC(=O)O[C@]1(C(=O)CO)CC[C@H]2[C@@H]3CCC4=CC(=O)CC[C@]4(C)[C@H]3[C@@H](O)C[C@@]21C [Hydrocortisone valerate, reference compound] | 95 | 1 | 73 | 1 | 1 | Q2 | > 50 |  | Q2 | Q2 | > 20 | > 20 | 1% | 1% | 0.05 | 0.05 | 0.05 | > 50 | Q2 | > 20 | Fibrin Selectivity [1]: 28; Fibrin Selectivity (LOG10) [1]: 1.45; IC50 [1, 18]: 0.05 µM; IC50 [2, 19]: 1 µM; IC50 (primary rat microglia [6]): > 20 µM
7 | C[C@]12CCC(=O)C=C1CC[C@@H]1[C@@H]2[C@@H](O)C[C@@]2(C)[C@H]1CC[C@]2(O)C(=O)CO [Hydrocortisone, reference compound] | 104 |  |  |  |  | Q2 | > 50 |  | Q2 | Q2 | > 20 | > 20 | 2% and 1% and 5% | 2% and 4% |  |  |  | > 50 | Q2 | > 20 | IC50 ([1]; Table 6, read-out: Fibrin IC50 (uM) (Suppl. Table 7)): 0.03 µM; IC50 ([1]; Table 7, read-out: fib_IC50): 0.018 µM; IC50 ([2]; Table 6, read-out: LPS IC50 (uM) (Suppl. Table 7)): 18 µM; IC50 ([2]; Table 7, read-out: LPS_IC50): 0.002 µM; Quadrant (FIG. 5b) ([3]; Table 2, screen at 10 μM): Q2; Activity ([3]; Table 7, fib = fibrin, LPS, tox = toxicity): fib/LPS; Quadrant (FIG. 5b) ([3]; microglia HTS, Table 6): Q2; IC50 (in vitro [4]; cFib assay, Table 6): > 20 µM; IC50 (primary rat microglia [6]): > 20 µM; IC50 (primary rat microglia [6]; Table 6): > 20 µM
8 | COc1ccccc1N1CCN(CC(O)COc2cccc3ccccc23)CC1 (centres unmarked) [Naftopidil dihydrochloride, reference compound] | 59 | > 20 | 32 | > 20 | > 20 | Q3 | > 50 |  | Q3 | Q3 | > 20 | > 20 | 0% | 1% | 7 | 7 | 7 | > 50 | Q3 | > 20 | Fibrin Selectivity [1]: 3; Fibrin Selectivity (LOG10) [1]: 0.45; IC50 [1, 18]: 7 µM; IC50 [2, 19]: > 20 µM; IC50 (primary rat microglia [6]): > 20 µM
9 | CCOC(=O)[N-]c1cn(N2CCOCC2)n[o+]1 [Molsidomine, reference compound] | 103 | > 20 | 124 | > 20 | > 20 | Q2 | > 50 | > 50 | Q2 | Q2 | > 20 | > 20 | 5% | 2% | > 20 | > 20 | > 20 |  |  |  | 
10 | CC(C)c1nc(N(C)S(C)(=O)=O)nc(-c2ccc(F)cc2)c1/C=C/[C@@H](O)C[C@@H](O)CC(=O)O [Rosuvastatin, reference compound] | 93 | 3 | 95 | 3 | 3 | Q2 | > 50 |  | Q2 | Q2 | 20 | > 20 | 4% | 2% | 0.3 | 0.3 | 0.3 | > 50 | Q2 | 20 | Fibrin Selectivity [1]: 12; Fibrin Selectivity (LOG10) [1]: 1.09; IC50 [1, 18]: 0.3 µM; IC50 [2, 19]: 3 µM; IC50 (primary rat microglia [6]): > 20 µM
